Source: ChEMBL document CHEMBL1201862, “PubChem BioAssay data set” (2004)
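Grown in 96-well plates, cells were treated for 48 hours with each compound at five concentrations. Insufficient inhibition: endpoint recorded as highest concentration tested. At the GI50, growth is halved.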 Activity calls are given as the source filed them. No stated cut-off is given here; in the data, active = GI50 up to about 1.1 µM and inactive = higher.

What was measured:
Assay in all cases: growth of human tumour cells (NCI), 48 h
786-0 = tested on: 786-0
A549 = tested on: A549
ACHN = tested on: ACHN
CAKI-1 = tested on: CAKI-1
CCRF-CEM = tested on: CCRF-CEM
DU-145 = tested on: DU-145
EKVX = tested on: EKVX
HCC 2998 = tested on: HCC 2998
HCT-116 = tested on: HCT-116
HCT-15 = tested on: HCT-15
HL-60 = tested on: HL-60
HOP-62 = tested on: HOP-62
HT-29 = tested on: HT-29
Hs-578T = tested on: Hs-578T
IGROV-1 = tested on: IGROV-1
K562 = tested on: K562
KM12 = tested on: KM12
LOX IMVI = tested on: LOX IMVI
M14 = tested on: M14
MCF7 = tested on: MCF7
MDA-MB-435 = tested on: MDA-MB-435
MOLT-4 = tested on: MOLT-4
Malme-3M = tested on: Malme-3M
NCI-H226 = tested on: NCI-H226
NCI-H23 = tested on: NCI-H23
NCI-H460 = tested on: NCI-H460
NCI-H522 = tested on: NCI-H522
NCI/ADR-RES = tested on: NCI/ADR-RES
OVCAR-3 = tested on: OVCAR-3
OVCAR-5 = tested on: OVCAR-5
OVCAR-8 = tested on: OVCAR-8
PC-3 = tested on: PC-3
RPMI-8226 = tested on: RPMI-8226
RXF 393 = tested on: RXF 393
SF-268 = tested on: SF-268
SF-295 = tested on: SF-295
SF-539 = tested on: SF-539
SK-MEL-28 = tested on: SK-MEL-28
SK-MEL-5 = tested on: SK-MEL-5
SN12C = tested on: SN12C
SNB-19 = tested on: SNB-19
SNB-75 = tested on: SNB-75
SR = tested on: SR
SW-620 = tested on: SW-620
T47D = tested on: T47D
TK-10 = tested on: TK-10
U-251 = tested on: U-251
UACC-257 = tested on: UACC-257
UACC-62 = tested on: UACC-62
UO-31 = tested on: UO-31
A498 = tested on: A498
COLO 205 = tested on: COLO 205
HOP-92 = tested on: HOP-92
MDA-MB-231 = tested on: MDA-MB-231
OVCAR-4 = tested on: OVCAR-4
SK-MEL-2 = tested on: SK-MEL-2
SK-OV-3 = tested on: SK-OV-3
MDA-N = tested on: MDA-N

CCOC(=O)c1ccc(Nc2nc3ccc(C(F)(F)F)cc3nc2-c2ccccc2)cc1
GI50 (786-0): > 100 µM (inactive)
GI50 (A549): > 100 µM (inactive)
GI50 (ACHN): > 100 µM (inactive)
GI50 (CAKI-1): > 100 µM (inactive)
GI50 (CCRF-CEM): 63.4 µM (inactive)
GI50 (DU-145): > 100 µM (inactive)
GI50 (EKVX): > 100 µM (inactive)
GI50 (HCC 2998): 84.1 µM (inactive)
GI50 (HCT-116): 84.9 µM (inactive)
GI50 (HCT-15): 15.4 µM
GI50 (HL-60): 61.1 µM (inactive)
GI50 (HOP-62): 80 µM (inactive)
GI50 (HT-29): 67.9 µM (inactive)
GI50 (Hs-578T): 60.5 µM (inactive)
GI50 (IGROV-1): 71.9 µM (inactive)
GI50 (K562): > 100 µM (inactive)
GI50 (KM12): > 100 µM (inactive)
GI50 (LOX IMVI): > 100 µM (inactive)
GI50 (M14): > 100 µM (inactive)
GI50 (MCF7): > 100 µM (inactive)
GI50 (MDA-MB-435): > 100 µM (inactive)
GI50 (MOLT-4): 38.1 µM (inactive)
GI50 (Malme-3M): > 100 µM (inactive)
GI50 (NCI-H226): > 100 µM (inactive)
GI50 (NCI-H23): > 100 µM (inactive)
GI50 (NCI-H460): > 100 µM (inactive)
GI50 (NCI-H522): 47.9 µM (inactive)
GI50 (NCI/ADR-RES): > 100 µM (inactive)
GI50 (OVCAR-3): > 100 µM (inactive)
GI50 (OVCAR-5): > 100 µM (inactive)
GI50 (OVCAR-8): > 100 µM (inactive)
GI50 (PC-3): 38 µM (inactive)
GI50 (RPMI-8226): > 100 µM (inactive)
GI50 (RXF 393): 97.3 µM (inactive)
GI50 (SF-268): > 100 µM (inactive)
GI50 (SF-295): 56.8 µM (inactive)
GI50 (SF-539): > 100 µM (inactive)
GI50 (SK-MEL-28): > 100 µM (inactive)
GI50 (SK-MEL-5): > 100 µM (inactive)
GI50 (SN12C): 74.8 µM (inactive)
GI50 (SNB-19): > 100 µM (inactive)
GI50 (SNB-75): 41.3 µM (inactive)
GI50 (SR): > 100 µM (inactive)
GI50 (SW-620): > 100 µM (inactive)
GI50 (T47D): 20.5 µM (inactive)
GI50 (TK-10): > 100 µM (inactive)
GI50 (U-251): 53 µM (inactive)
GI50 (UACC-257): > 100 µM (inactive)
GI50 (UACC-62): 28.2 µM (inactive)
GI50 (UO-31): > 100 µM (inactive)

Cc1ccc(S(=O)(=O)NC(=O)NCc2ccc(S(N)(=O)=O)cc2)cc1
GI50 (786-0): > 100 µM (inactive)
GI50 (A498): > 100 µM (inactive)
GI50 (A549): > 100 µM (inactive)
GI50 (ACHN): > 100 µM (inactive)
GI50 (CAKI-1): > 100 µM (inactive)
GI50 (COLO 205): > 100 µM (inactive)
GI50 (DU-145): > 100 µM (inactive)
GI50 (EKVX): > 100 µM (inactive)
GI50 (HCC 2998): > 100 µM (inactive)
GI50 (HCT-116): > 100 µM (inactive)
GI50 (HCT-15): > 100 µM
GI50 (HL-60): > 100 µM (inactive)
GI50 (HOP-62): > 100 µM (inactive)
GI50 (HOP-92): > 100 µM (inactive)
GI50 (HT-29): > 100 µM (inactive)
GI50 (Hs-578T): > 100 µM (inactive)
GI50 (IGROV-1): > 100 µM (inactive)
GI50 (K562): > 100 µM (inactive)
GI50 (KM12): > 100 µM (inactive)
GI50 (LOX IMVI): > 100 µM (inactive)
GI50 (M14): > 100 µM (inactive)
GI50 (MCF7): > 100 µM (inactive)
GI50 (MDA-MB-231): > 100 µM (inactive)
GI50 (MDA-MB-435): > 100 µM (inactive)
GI50 (MOLT-4): > 100 µM (inactive)
GI50 (Malme-3M): > 100 µM (inactive)
GI50 (NCI-H226): > 100 µM (inactive)
GI50 (NCI-H23): > 100 µM (inactive)
GI50 (NCI-H460): > 100 µM (inactive)
GI50 (NCI-H522): > 100 µM (inactive)
GI50 (NCI/ADR-RES): > 100 µM (inactive)
GI50 (OVCAR-3): > 100 µM (inactive)
GI50 (OVCAR-4): > 100 µM (inactive)
GI50 (OVCAR-5): > 100 µM (inactive)
GI50 (PC-3): > 100 µM (inactive)
GI50 (RPMI-8226): > 100 µM (inactive)
GI50 (RXF 393): > 100 µM (inactive)
GI50 (SF-268): > 100 µM (inactive)
GI50 (SF-295): > 100 µM (inactive)
GI50 (SF-539): > 100 µM (inactive)
GI50 (SK-MEL-28): > 100 µM (inactive)
GI50 (SK-MEL-2): > 100 µM (inactive)
GI50 (SK-MEL-5): > 100 µM (inactive)
GI50 (SK-OV-3): > 100 µM (inactive)
GI50 (SNB-19): > 100 µM (inactive)
GI50 (SNB-75): > 100 µM (inactive)
GI50 (SR): > 100 µM (inactive)
GI50 (SW-620): > 100 µM (inactive)
GI50 (T47D): > 100 µM (inactive)
GI50 (TK-10): > 100 µM (inactive)
GI50 (U-251): > 100 µM (inactive)
GI50 (UACC-62): > 100 µM (inactive)
GI50 (UO-31): > 100 µM (inactive)

O=C(O)CCC(=O)c1ccc(Cl)cc1
GI50 (786-0): > 100 µM (inactive)
GI50 (A549): > 100 µM (inactive)
GI50 (CAKI-1): > 100 µM (inactive)
GI50 (CCRF-CEM): > 100 µM (inactive)
GI50 (COLO 205): > 100 µM (inactive)
GI50 (DU-145): > 100 µM (inactive)
GI50 (EKVX): > 100 µM (inactive)
GI50 (HCT-116): > 100 µM (inactive)
GI50 (HL-60): > 100 µM (inactive)
GI50 (HOP-62): > 100 µM (inactive)
GI50 (HOP-92): > 100 µM (inactive)
GI50 (HT-29): > 100 µM (inactive)
GI50 (IGROV-1): > 100 µM (inactive)
GI50 (K562): > 100 µM (inactive)
GI50 (KM12): > 100 µM (inactive)
GI50 (LOX IMVI): > 100 µM (inactive)
GI50 (M14): > 100 µM (inactive)
GI50 (MDA-MB-435): > 100 µM (inactive)
GI50 (MDA-N): > 100 µM (inactive)
GI50 (MOLT-4): > 100 µM (inactive)
GI50 (NCI-H226): > 100 µM (inactive)
GI50 (OVCAR-3): > 100 µM (inactive)
GI50 (OVCAR-4): > 100 µM (inactive)
GI50 (OVCAR-5): > 100 µM (inactive)
GI50 (OVCAR-8): > 100 µM (inactive)
GI50 (RPMI-8226): > 100 µM (inactive)
GI50 (RXF 393): > 100 µM (inactive)
GI50 (SF-295): > 100 µM (inactive)
GI50 (SF-539): > 100 µM (inactive)
GI50 (SK-MEL-28): > 100 µM (inactive)
GI50 (SK-MEL-5): > 100 µM (inactive)
GI50 (SK-OV-3): > 100 µM (inactive)
GI50 (SN12C): > 100 µM (inactive)
GI50 (SNB-19): > 100 µM (inactive)
GI50 (SNB-75): > 100 µM (inactive)
GI50 (SR): > 100 µM (inactive)
GI50 (SW-620): > 100 µM (inactive)
GI50 (T47D): > 100 µM (inactive)
GI50 (UO-31): > 100 µM (inactive)

CCN1C(=O)CS/C1=N/NC(=O)C(O)(c1ccccc1)C1C=CC=CC1 (stereo not given)
GI50 (A549): > 10 µM (inactive)
GI50 (ACHN): > 10 µM (inactive)
GI50 (CAKI-1): > 10 µM (inactive)
GI50 (CCRF-CEM): > 10 µM (inactive)
GI50 (COLO 205): > 10 µM (inactive)
GI50 (HL-60): > 10 µM (inactive)
GI50 (HOP-62): > 10 µM (inactive)
GI50 (HOP-92): > 10 µM (inactive)
GI50 (IGROV-1): > 10 µM (inactive)
GI50 (K562): > 10 µM (inactive)
GI50 (M14): > 10 µM (inactive)
GI50 (MCF7): > 10 µM (inactive)
GI50 (MDA-MB-435): > 10 µM (inactive)
GI50 (MOLT-4): > 10 µM (inactive)
GI50 (Malme-3M): > 10 µM (inactive)
GI50 (NCI-H23): > 10 µM (inactive)
GI50 (NCI-H460): > 10 µM (inactive)
GI50 (NCI/ADR-RES): > 10 µM (inactive)
GI50 (OVCAR-4): > 10 µM (inactive)
GI50 (OVCAR-5): > 10 µM (inactive)
GI50 (RPMI-8226): > 10 µM (inactive)
GI50 (RXF 393): > 10 µM (inactive)
GI50 (SF-268): > 10 µM (inactive)
GI50 (SK-MEL-28): > 10 µM (inactive)
GI50 (SK-MEL-2): > 10 µM (inactive)
GI50 (SK-MEL-5): > 10 µM (inactive)
GI50 (SK-OV-3): > 10 µM (inactive)
GI50 (SNB-75): > 10 µM (inactive)
GI50 (SR): > 10 µM (inactive)
GI50 (SW-620): > 10 µM (inactive)
GI50 (T47D): > 10 µM (inactive)
GI50 (U-251): > 10 µM (inactive)
GI50 (UACC-62): > 10 µM (inactive)
